In the experiment the test system is serotonin uptake. Kind of experiment: Inhibition of serotonin uptake (in vitro): inhibition of synaptosomal reuptake of tritiated serotonin. It counts as biochemical. As to the method: Determination of endogenous monoaminergic re-uptake inhibition values both for serotonin and norepinephrine was accomplished using test methods described by P. Skolnick, et al., Br. J. Pharmacology (1985), 86, pp. 637-644; with only minor modifications. In vitro IC50 (nM) test values were determined for representative compounds of Formula I based on their inhibition of synaptosomal reuptake of tritiated serotonin. Test data IC50 values lower than 500 nM are considered to reflect activity as an inhibitor of serotonin reuptake. Compounds with Ic50 values lower than 100 nM comprise preferred compounds.

In general, IC50 refers to the concentration at which inhibition is half-maximal. Low readings indicate higher potency, high ones lower potency. The compound `COc1cncnc1N1CCN(CCCc2c[nH]c3ccc(F)cc23)C(C)C1` (stereo not shown) [Example 23, 3-[3-[4-(5-Methoxy-4-pyrimidinyl)-2-methyl-1-piperazinyl]propyl]-5-fluoroindole] had an IC50 of 0.03 nM.
Compound `COc1cncnc1N1CCN(CCCc2c[nH]c3ccc(F)cc23)CC1` [Example 24, 3-[3-[4-(5-Methoxy-4-pyrimidinyl)-1-piperazinl]propyl]-5-fluoroindole] displayed an IC50 of 0.3 nM.
Compound `COc1cncnc1N1CCN(CCCc2c[nH]c3cc(F)ccc23)C(C)C1` (stereo not shown) [Example 25, 3-[3-[4-(5-Methoxy-4-pyrimidinyl)-2-methyl-1-pioerazinyl]-propyl]-6-fluoroindole] gave an IC50 of 3.7 nM.
The compound `CCOc1cncnc1N1CCN(CCCc2c[nH]c3ccccc23)CC1` [Example 27] came in with a 50% inhibitory concentration (IC50) of 6.35 nM.
Under `COc1cncnc1N1CCN(CCCc2c[nH]c3ccccc23)CC1` [Example 28] stands 4.3 nM; under `COc1cncnc1N1CCN(CCCc2c[nH]c3ccc(Cl)cc23)CC1` [Example 29], 2.9 nM.
`COc1cncnc1N1CCN(CCCc2c[nH]c3cc(F)c(F)cc23)C(C)C1` (stereo not shown) [Example 30] returned a half-inhibitory concentration (IC50) of 1.46 nM.
For the compound `COc1cncnc1N1CCN(CCc2c[nH]c3ccc(F)cc23)CC1` [Example 31], the IC50 amounted to 0.92 nM.
`COc1cncnc1N1CCN(CCCc2c[nH]c3ccc(Cl)cc23)C(C)C1` (stereo not shown) [Example 32] displayed a concentration for half-maximal inhibition (IC50) of 2.1 nM.
`CCC1CN(c2ncncc2OC)CCN1CCCc1c[nH]c2ccccc12` (stereo not shown) [Example 33] returned a half-inhibitory concentration (IC50) of 2.64 nM.
As to `COc1cncnc1N1CCN(CCc2c[nH]c3cc(F)c(F)cc23)CC1` [Example 34], 3.1 nM corresponded to half-maximal inhibition (IC50).
In turn, `COc1cncnc1N1CCN(CCc2c[nH]c3ccc(F)cc23)C(C)C1` (stereo not shown) [Example 35] registered an IC50 of 3.1 nM.
In turn, `COc1cncnc1N1CCN(CCCc2cn(C)c3ccccc23)C(C)C1` (stereo not shown) [Example 36] had a concentration for half-maximal inhibition (IC50) of 4.7 nM.
The value for `COc1cc(N2CCN(CCCc3c[nH]c4ccccc34)CC2)ncn1` [Example 37] was 5.85 nM; that for `CCOc1cncnc1N1CCN(CCCc2c[nH]c3ccccc23)C(C)C1` (stereo not shown) [Example 38] was 13.4 nM.
Under `COc1cc(N2CCN(CCCc3c[nH]c4ccccc34)C(C)C2)ncn1` (stereo not shown) [Example 39] stands 9.3 nM.

(Values after patent US5077293A, “1-indolyalkyl-4-(alkoxypyrimidinyl)piperazines” (Bristol-Myers Squibb Co., priority 1990, dated 1991).)
